Where two headings read alike, the source gives them in different places.
How the values were obtained:
[1] = system: menopausal women; experiment: Placebo-controlled study: moderate to severe symptom of vulvar and vaginal atrophy; type: in vivo, human (women)
Method: (§1) This study was a multi-centred, double-blind, placebo-controlled, parallel group comparison. A total of 351 subjects were enrolled at 78 sites in the United States.
(§2) A two-week, medication free, Pre-Treatment Phase was used to determine subject vasomotor symptoms. Efficacy assessments included the number and intensity of hot flushes per day, and severity of vulvar and vaginal atrophy symptoms.
(§3) The three treatment groups comprised the following dosages: • A 0.375 mg dose (1.25 g of gel @ 0.03%) applied to one arm and 0.9 g of placebo gel applied on the other arm once daily for 12 weeks; • A 0.27 mg dose (0.9 g of gel @ 0.03%) applied to one arm and 1.25 g of placebo gel applied on the other arm once daily for 12 weeks; and • 0.9 g of placebo gel applied to one arm and 1.25 g of placebo gel applied on the other arm once daily for 12 weeks.
(§4) The Treatment Phase was 12 weeks. A pre-treatment period of 2 weeks was used to initially evaluate each subject's vasomotor symptoms.
(§5) All data were analyzed using the approach of Observed Cases (OC).
(§6) For all continuous primary and secondary efficacy parameters, descriptive statistics tables and 2-way ANCOVA with fixed factors treatment and centre, and baseline value as covariate were provided. The interaction of treatment and centre was investigated using 2-way ANCOVA with fixed factors treatment, centre, and treatment-by-centre interaction with baseline value as covariate. To control the Type-I error rate, a step-down procedure using contrasts was performed to compare each treatment group to the placebo group. First, the group with the 0.375 mg dose was compared against placebo at the α=0.05 level (2-sided). If the null hypothesis was rejected, the group with the 0.27 mg dose was compared to placebo at the α=0.05 level (2-sided). Graphs were used to characterize the dose response. If the assumptions of the model were not met, then van Elteren's test with centre as the stratification variable was used in the step-down procedure. For categorical data, Fisher's exact test was used to compare treatment groups.
(§7) The study assessed the following variables: • Mean change in frequency of moderate to severe vasomotor symptoms from baseline to Week 4; • Mean change in frequency of moderate to severe vasomotor symptoms from baseline to Week 12; • Mean change in severity of moderate to severe vasomotor symptoms from baseline to Week 4; • Mean change in severity of moderate to severe vasomotor symptoms from baseline to Week 12; • Mean change in frequency of moderate-to-severe hot flushes at each week; • Mean change in severity of moderate-to-severe hot flushes at each week; • Mean change from baseline to Week 12 in the moderate to severe symptom of vulvar and vaginal atrophy that has been identified by the subject as being the most bothersome to her (vaginal pain, dryness, irritation/itching, bleeding, dysuria);
The severity of symptoms of vulvar and vaginal atrophy (vaginal pain associated with sexual activity, dryness, irritation/itching, bleeding associated with sexual activity, or dysuria) that was identified by the subject as moderate to severe and most bothersome was assessed at Week 1, Week 12, or Early Termination using the following rating scale: […]

[2] = cited from earlier work
[3] = system: menopausal women; experiment: Placebo-controlled study: severity of moderate to severe hot flushes; type: in vivo, human (women); design: key to Severity of Moderate to Severe Hot Flushes, Mean Change from Baseline / Severity of Moderate to Severe Hot Flushes, Mean: 0 none, 1 mild, 2 moderate, 3 severe hot flush intensity; details: for Severity of Moderate to Severe Hot Flushes, Mean: Baseline
Method: as §1, §2, §3, §4, §5, §6, §7
Severity of moderate to severe vasomotor symptoms was defined as (2*number of moderate hot flushes+3*number of severe hot flushes)/total number of moderate and severe hot flushes.
As with frequency, if less than 10 days of data were available for the baseline period, the baseline severity was considered missing.
On a daily basis, the subject recorded the number of hot flushes and rated the intensity of each based on a four-point scale as follows: • 0 (none) • 1 (mild) Sensation of heat without perspiration • 2 (moderate) Sensation of heat with perspiration, but the subject was able to continue with their activity • 3 (severe) Sensation of heat with sweating, sufficiently severe to result in discontinuation of activity Assessment of Vulvar and Vaginal Atrophy Symptom Severity

[4] = 0.27 mg dose (N = 115), Baseline
[5] = 0.27 mg dose (N = 115), Endpoint
[6] = 0.375 mg dose (N = 114), Baseline
[7] = 0.375 mg dose (N = 114), Endpoint

C[C@]12CC[C@@H]3c4ccc(O)cc4CC[C@H]3[C@@H]1CC[C@@H]2O [estradiol, 17-beta estradiol]
Improvement in moderate to severe symptoms of vulvar and vaginal atrophy ([1]; 0.27 mg dose): statistically significant improvement | Symptom of Vulvar and Vaginal Atrophy, number of subjects rated Moderate [1, 4]: 21 | Symptom of Vulvar and Vaginal Atrophy, number of subjects rated Severe [1, 4]: 16 | Symptom of Vulvar and Vaginal Atrophy, percent of subjects rated Severe [1, 4]: (13.9%) | Symptom of Vulvar and Vaginal Atrophy, number of subjects rated Mild [1, 5]: 15 | Symptom of Vulvar and Vaginal Atrophy, number of subjects rated Moderate [1, 5]: 10 | Symptom of Vulvar and Vaginal Atrophy, number of subjects rated None [1, 5]: 6 | Symptom of Vulvar and Vaginal Atrophy, number of subjects rated Severe [1, 5]: 5 | Symptom of Vulvar and Vaginal Atrophy, percent of subjects rated Mild [1, 5]: (13.0%) | Symptom of Vulvar and Vaginal Atrophy, percent of subjects rated Moderate [1, 5]: (8.7%) | Symptom of Vulvar and Vaginal Atrophy, percent of subjects rated None [1, 5]: (5.2%) | Symptom of Vulvar and Vaginal Atrophy, percent of subjects rated Severe [1, 5]: (4.3%) | Improvement in moderate to severe symptoms of vulvar and vaginal atrophy ([1]; 0.375 mg dose): statistically significant improvement | Symptom of Vulvar and Vaginal Atrophy, number of subjects rated Moderate [1, 6]: 26 | Symptom of Vulvar and Vaginal Atrophy, number of subjects rated Severe [1, 6]: 18 | Symptom of Vulvar and Vaginal Atrophy, percent of subjects rated Moderate [1, 6]: (22.8%) | Symptom of Vulvar and Vaginal Atrophy, percent of subjects rated Severe [1, 6]: (15.8%) | Symptom of Vulvar and Vaginal Atrophy, number of subjects rated Mild [1, 7]: 17 | Symptom of Vulvar and Vaginal Atrophy, number of subjects rated Moderate [1, 7]: 9 | Symptom of Vulvar and Vaginal Atrophy, number of subjects rated None [1, 7]: 10 | Symptom of Vulvar and Vaginal Atrophy, number of subjects rated Severe [1, 7]: 6 | Symptom of Vulvar and Vaginal Atrophy, percent of subjects rated Mild [1, 7]: (14.9%) | Symptom of Vulvar and Vaginal Atrophy, percent of subjects rated Moderate [1, 7]: (7.9%) | Symptom of Vulvar and Vaginal Atrophy, percent of subjects rated None [1, 7]: (8.8%) | Symptom of Vulvar and Vaginal Atrophy, percent of subjects rated Severe [1, 7]: (5.3%) | serum estradiol level ([2]; daily topical 0.75 mg dose of estradiol (1.25 g of hydro-alcoholic gel per day)): elevation in the serum estradiol level | serum estradiol level ([2]; lower estradiol dose than 0.75 mg): did not achieve similar serum levels | Week at which statistical significance vs placebo was achieved, severity of moderate to severe hot flushes ([3]; 0.27 mg dose): 8 Week | Severity of Moderate to Severe Hot Flushes, Mean ([3]; 0.27 mg dose): 2.52 | Severity of Moderate to Severe Hot Flushes, Mean Change from Baseline ([3]; 0.27 mg dose, Week 1): −0.02 | Severity of Moderate to Severe Hot Flushes, Mean Change from Baseline ([3]; 0.27 mg dose, Week 2): −0.10 | Severity of Moderate to Severe Hot Flushes, Mean Change from Baseline ([3]; 0.27 mg dose, Week 3): −0.21 | Severity of Moderate to Severe Hot Flushes, Mean Change from Baseline ([3]; 0.27 mg dose, Week 4): −0.26 | Severity of Moderate to Severe Hot Flushes, Mean Change from Baseline ([3]; 0.27 mg dose, Week 5): −0.29 | Severity of Moderate to Severe Hot Flushes, Mean Change from Baseline ([3]; 0.27 mg dose, Week 6): −0.36 | Severity of Moderate to Severe Hot Flushes, Mean Change from Baseline ([3]; 0.27 mg dose, Week 7): −0.40 | Severity of Moderate to Severe Hot Flushes, Mean Change from Baseline ([3]; 0.27 mg dose, Week 8): −0.46 | Severity of Moderate to Severe Hot Flushes, Mean Change from Baseline ([3]; 0.27 mg dose, Week 9): −0.60 | Severity of Moderate to Severe Hot Flushes, Mean Change from Baseline ([3]; 0.27 mg dose, Week 10): −0.58 | Severity of Moderate to Severe Hot Flushes, Mean Change from Baseline ([3]; 0.27 mg dose, Week 11): −0.66 | Severity of Moderate to Severe Hot Flushes, Mean Change from Baseline ([3]; 0.27 mg dose, Week 12): −0.70 | Week at which statistical significance vs placebo was achieved, severity of moderate to severe hot flushes ([3]; 0.375 mg dose): 4 Week | Severity of Moderate to Severe Hot Flushes, Mean ([3]; 0.375 mg dose): 2.52 | Severity of Moderate to Severe Hot Flushes, Mean Change from Baseline ([3]; 0.375 mg dose, Week 1): 0.00 | Severity of Moderate to Severe Hot Flushes, Mean Change from Baseline ([3]; 0.375 mg dose, Week 2): −0.10 | Severity of Moderate to Severe Hot Flushes, Mean Change from Baseline ([3]; 0.375 mg dose, Week 3): −0.19 | Severity of Moderate to Severe Hot Flushes, Mean Change from Baseline ([3]; 0.375 mg dose, Week 4): −0.31 | Severity of Moderate to Severe Hot Flushes, Mean Change from Baseline ([3]; 0.375 mg dose, Week 5): −0.35 | Severity of Moderate to Severe Hot Flushes, Mean Change from Baseline ([3]; 0.375 mg dose, Week 6): −0.49 | Severity of Moderate to Severe Hot Flushes, Mean Change from Baseline ([3]; 0.375 mg dose, Week 7): −0.67 | Severity of Moderate to Severe Hot Flushes, Mean Change from Baseline ([3]; 0.375 mg dose, Week 8): −0.59 | Severity of Moderate to Severe Hot Flushes, Mean Change from Baseline ([3]; 0.375 mg dose, Week 9): −0.77 | Severity of Moderate to Severe Hot Flushes, Mean Change from Baseline ([3]; 0.375 mg dose, Week 10): −0.76 | Severity of Moderate to Severe Hot Flushes, Mean Change from Baseline ([3]; 0.375 mg dose, Week 11): −0.89 | Severity of Moderate to Severe Hot Flushes, Mean Change from Baseline ([3]; 0.375 mg dose, Week 12): −0.90
